Holding throughout (format): in vivo
What all share (conditions): 312 h, rate 250 g/ha, evaluated after 13 days, 100=total damage to plant, 0=no damage to plant

The test system of experiment [1] is Lolium perenne (LOLPE). In words: Pre-emergence herbicidal activity, glasshouse pot test. The gist of the method:
(§1)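 Pots, standard soil; sown, 1 d cultivation, then sprayed (acetone/water 50:50, 0.5% Tween 20, aqueous dilution). Glasshouse 24/16 °C day/night, 14 h light, 65% RH. Visual damage rating at 13 d, 0–100.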

Experiment [2] has as its system Alopecurus myosuroides (ALOMY). The experiment is described as above. The gist of the method:
as §1

The subject of experiment [3] is Avena fatua (AVEFA). The description is as above. In a few lines: as §1
In experiment [4] the test system is Echinochloa crus-galli (ECHCG). The description is as above. In a few lines: as §1
The test system of experiment [5] is Lolium perenne (LOLPE). Briefly: Post-emergence herbicidal activity, glasshouse pot test. In a few lines: (§2)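 Visual damage score 0–100 (100 = plant killed) taken 13 d after treatment. Pots sown in standard soil, sprayed post-emergence at day 8; spray solution: acetone/water 50:50 + 0.5% Tween 20. Glasshouse 24/16 °C, 14 h photoperiod, 65% RH.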
Experiment [6] has as its system Alopecurus myosuroides (ALOMY). The description is as above. In a few lines: as §2
The subject of experiment [7] is Avena fatua (AVEFA). The description is as above. The gist of the method: as §2
For experiment [8], the system named is Echinochloa crus-galli (ECHCG). The description is as above. In a few lines:
as §2

Pest or weed control data for three compounds are collected here from patent US8895474B2, “Herbicidally active cyclopentanediones and derivatives thereof, and their use in controlling weeds” (Syngenta Limited, priority 2009, dated 2014).

Turning to `CCc1ccc(Oc2cnc3ccc(Br)cc3n2)cc1C1=C(O)C2C(C1=O)[C@H]1CC[C@@H]2CC1` (stereo partly drawn) [Compound A-93], the pest or weed control at 250 g/ha was determined as 60% in the experiment with Lolium perenne (LOLPE) [1]; 10% in experiment [2]; 0% in the experiment with Avena fatua (AVEFA) [3]; 100% in experiment [4]; 50% with Lolium perenne (LOLPE) [5]; 60% in experiment [6]. For the same compound, the figures for the pest or weed control at 250 g/ha (with Avena fatua (AVEFA) [7]; in experiment [8]) were 60% and 100%, respectively.
Consider `CCc1ccc(Oc2ccc(Br)cc2)cc1C1=C(O)[C@H]2[C@H]3CC[C@H](C3)[C@H]2C1=O` [Compound A-22], for which the pest or weed control at 250 g/ha in the experiment with Lolium perenne (LOLPE) [1] is 80%; in experiment [2], 40%; in the experiment on Avena fatua (AVEFA) [3] it was 30%; in experiment [4] it was 90%; in the experiment with Lolium perenne (LOLPE) [5], 40%; in experiment [6], 50%. The pest or weed control at 250 g/ha with Avena fatua (AVEFA) [7] was determined as 80%; in experiment [8], 100%.
For the compound `CCc1ccc(Oc2ccc(C(F)(F)F)cn2)cc1C1=C(O)C2C(C1=O)[C@H]1CC[C@@H]2CC1` (stereo partly drawn) [Compound A-87], the pest or weed control at 250 g/ha with Lolium perenne (LOLPE) [1] was found to be 90%; in experiment [2], 80%; in the experiment with Avena fatua (AVEFA) [3], 30%; in experiment [4], 100%; with Lolium perenne (LOLPE) [5], 90%; in experiment [6], 90%. Also, the pest or weed control at 250 g/ha (in the experiment with Avena fatua (AVEFA) [7]; in experiment [8]) was 100% in each case.

As usually defined, the pest or weed control is the degree to which the test organism was suppressed or injured, in per cent. Low readings indicate weak suppression, high ones strong suppression.
